Test results published in patent US20060211698A1, “Bicyclic heteroaryl derivatives for treating viruses” (Genelabs, Inc., priority 2005, published 2006).
Values belong to the molecule of their own block, whether it stands above or below them.

Target: T1, HCV-NS5b (Hepatitis C virus genotype 1b, UniProt Q9WMX2)
T1 construct: The cloned fragment was missing the C terminus 21 amino acid residues; (His)6 (C); made in house; host or cells: XL-1 cells (E. coli)
Assay: HCV-NS5b Enzyme Assay
Type: biochemical
Conditions: 1 μM test compound; incorporation of [3H]-UTP, 37° C., 2 hours
Text: The coding sequence of NS5b protein was cloned by PCR from pFKI389luc/NS3-3′/ET as described by Lohmann, V., et al. (1999) Science 285, 110-113 using the following primers: • […] (SEQ. ID. NO. 1) • […] (SEQ. ID. NO. 2)
The cloned fragment was missing the C terminus 21 amino acid residues. The cloned fragment is inserted into an IPTG-inducible expression plasmid that provides an epitope tag (His)6 at the carboxy terminus of the protein.
The recombinant enzyme was expressed in XL-1 cells and after induction of expression, the protein was purified using affinity chromatography on a nickel-NTA column. Storage condition is 10 mM Tris-HCl pH 7.5, 50 mM NaCl, 0.1 mM EDTA, 1 mM DTT, 20% glycerol at −20° C.
The polymerase activity was assayed by measuring incorporation of radiolabeled UTP into a RNA product using a biotinylated, heteropolymeric template, which includes a portion of the HCV genome. Typically, the assay mixture […] contains 10 mM Tris-HCl (pH 7.5), 5 mM MgCl2, 0.2 mM EDTA, 10 mM KCl, 1 unit/μL RNAsin. 1 mM DTT, 10 μM each of NTP, including [^3H]-UTP, and 10 ng/μL biotinylated heteropolymeric template. 20× test compound in 2 μl's was then added as a 100% DMSO solution to achieve a final DMSO concentration of 5%. For IC50 determination a 10-point dose response was used. The compounds were serial diluted 2-fold […]. Typically for IC50's, compounds were tested starting at 50 uM or 2 μm depending on the potency. Reactions were started with addition of 10×NS5B in 4 μl's and allowed to incubate at 37° C. for 2 hours. Reactions were quenched with 8 μL of 100 mM EDTA and reaction mixtures (30 μL) were transferred to streptavidin-coated scintillation proximity microtiter plates (FlashPlates) and incubated at 4° C. overnight. Incorporation of radioactivity was determined by scintillation counting (cpm). The % Inhibition at a particular concentration was determined using the following equation, % Inhibition=100−[100*(cpm with inhibitor−bg)/(cpm with no inhibitor−bg)] where bg was the background with no enzyme.

SMILES: CN(C)c1ccc(-c2ccc(-c3c(C4CCCCC4)c4ccc(C(=O)O)cc4n3CC(=O)N3CCOCC3)cc2)cc1 [Compound 299, 3-Cyclohexyl-2-(4′-dimethylamino-biphenyl-4-yl)-1-(2-morpholin-4-yl-2-oxo-ethyl)-1H-indole-6-carboxylic acid]
inhibition at 1 µM: 94.9%

SMILES: Cc1cccc(-c2ccc(-c3c(C4CCCCC4)c4ccc(C(=O)O)cc4n3CC(=O)N3CCOCC3)cc2)c1 [Compound 312, 3-Cyclohexyl-2-(3′-methyl-biphenyl-4-yl)-1-(2-morpholin-4-yl-2-oxo-ethyl)-1H-indole-6-carboxylic acid]
inhibition at 1 µM: 99.5%

SMILES: O=C(O)c1ccc2c(C3CCCCC3)c(-c3ccc4nc(-c5ccccc5)cnc4c3)n(CC(=O)N3CCOCC3)c2c1 [Compound 330, 3-Cyclohexyl-1-(2-morpholin-4-yl-2-oxo-ethyl)-2-(2-phenyl-quinoxalin-6-yl)-1H-indole-6-carboxylic acid]
inhibition at 1 µM: 96.8%

SMILES: Cc1ccsc1-c1ccc2cc(-c3c(C4CCCCC4)c4ccc(C(=O)O)cc4n3CC(=O)N3CCOCC3)ccc2n1 [Compound 229, 3-Cyclohexyl-2-[2-(3-methyl-thiophen-2-yl)-quinolin-6-yl]-1-(2-morpholin-4-yl-2-oxo-ethyl)-1H-indole-6-carboxylic acid]
inhibition at 1 µM: 96.5%

SMILES: COc1ccc(-c2ccc3cc(-c4c(C5CCCCC5)c5ccc(C(=O)O)cc5n4CC(=O)N4CCOCC4)ccc3n2)cc1 [Compound 254, 3-Cyclohexyl-2-[2-(4-methoxy-phenyl)-quinolin-6-yl]-1-(2-morpholin-4-yl-2-oxo-ethyl)-1H-indole-6-carboxylic acid]
inhibition at 1 µM: 96.9%

SMILES: Cc1nc(C)c(-c2ccc3cc(-c4c(C5CCCCC5)c5ccc(C(=O)O)cc5n4CC(=O)NCCO)ccc3n2)s1 [Compound 215, 1-[(2-hydroxyethylcarbamoyl)-methyl]-2-[2-(2,4-dimethyl-thiazol-5-yl)-quinolin-6-yl]-3-cyclohexyl-1H-indole-6-carboxylic acid]
inhibition at 1 µM: 94.3%

SMILES: O=C(O)c1ccc2c(C3CCCCC3)c(-c3ccc4nc(-c5cccc(Br)c5)ccc4c3)n(CC(=O)N3CCOCC3)c2c1 [Compound 262, 2-[2-(3-Bromo-phenyl)-quinolin-6-yl]-3-cyclohexyl-1-(2-morpholin-4-yl-2-oxo-ethyl)-1H-indole-6-carboxylic acid]
inhibition at 1 µM: 97.3%

SMILES: COc1cccc(-c2ccc3cc(-c4c(C5CCCCC5)c5ccc(C(=O)O)cc5n4CC(=O)N4CCOCC4)ccc3n2)c1 [Compound 221, 3-Cyclohexyl-2-[2-(3-methoxy-phenyl)-quinolin-6-yl]-1-(2-morpholin-4-yl-2-oxo-ethyl)-1H-indole-6-carboxylic acid]
inhibition at 1 µM: 99.6%

SMILES: O=C(O)c1ccc2c(C3CCCCC3)c(-c3ccc4nc(-c5cccc(F)c5)ccc4c3)n(CC(=O)N3CCOCC3)c2c1 [Compound 261, 3-Cyclohexyl-2-[2-(3-fluoro-phenyl)-quinolin-6-yl]-1-(2-morpholin-4-yl-2-oxo-ethyl)-1H-indole-6-carboxylic acid]
inhibition at 1 µM: 97.1%

SMILES: Cc1nc(C)c(-c2ccc3cc(-c4c(C5CCCCC5)c5ccc(C(=O)O)cc5n4CCCN(C)C)ccc3n2)s1 [Compound 286, 3-Cyclohexyl-1-(3-dimethylamino-propyl)-2-[2-(2,4-dimethyl-thiazol-5-yl)-quinolin-6-yl]-1H-indole-6-carboxylic acid]
inhibition at 1 µM: 85.7%

SMILES: O=C(O)c1ccc2c(C3CCCCC3)c(-c3ccc4ncc(-c5ccccc5)nc4c3)n(CC(=O)N3CCOCC3)c2c1 [Compound 329, 3-Cyclohexyl-1-(2-morpholin-4-yl-2-oxo-ethyl)-2-(3-phenyl-quinoxalin-6-yl)-1H-indole-6-carboxylic acid]
inhibition at 1 µM: 99.8%

SMILES: Cc1nc(C)c(-c2ccc3cc(-c4c(C5CCCCC5)c5ccc(C(=O)O)cc5n4CC(=O)N4CCC(N5CCCC5)CC4)ccc3n2)s1 [Compound 214, 1-[2-oxo-2-(4-pyrrolidin-1-yl-piperidin-1-yl)-ethyl]-2-[2-(2,4-dimethylthiazol-5-yl)-quinolin-6-yl]-3-cyclohexyl-1H-indole-6-carboxylic acid]
inhibition at 1 µM: 92.1%

SMILES: COc1ccc(-c2ccc(Cl)cc2)c(-c2ccc3cc(-c4c(C5CCCCC5)c5ccc(C(=O)O)cc5n4CC(=O)N4CCC(N5CCCC5)CC4)ccc3n2)c1 [Compound 205, 1-[(4-pyrrolidin-1-yl-piperidin-1-yl)carbonylmethyl]-2-[2-(4′-chloro-4-methoxy-biphen-2-yl)-quinolin-6-yl]-3-cyclohexyl-1H-indole-6-carboxylic acid]
inhibition at 1 µM: 97%

SMILES: O=C(O)c1ccc2c(C3CCCCC3)c(-c3ccc4nc(-c5ccc[nH]5)ccc4c3)n(CC(=O)N3CCOCC3)c2c1 [Compound 219, 1-[N-morpholinocarbonylmethyl]-2-[2-(pyrrol-2-yl)-quinolin-6-yl]-3-cyclohexyl-1H-indole-6-carboxylic acid]
% inhibition @ 1 μM: 96.0%

SMILES: COc1ccc(-c2ccc(Cl)cc2)c(-c2ccc3cc(-c4c(C5CCCCC5)c5ccc(C(=O)O)cc5n4CC(=O)N4CCOCC4)ccc3n2)c1 [Compound 203, 1-[N-morpholinocarbonylmethyl]-2-[2-(4′-chloro-4-methoxy-biphen-2-yl)-quinolin-6-yl]-3-cyclohexyl-1H-indole-6-carboxylic acid]
inhibition at 1 µM: 98.7%

SMILES: Cc1nc(C)c(-c2nc3ccc(-c4cc5ccc(C(=O)O)cc5n4CC(=O)N4CCCCC4)cc3cc2C2CCCCC2)s1 [Compound 216, 1-(2-oxo-2-piperidin-1-yl-ethyl)-2-[2-(2,4-dimethylthiazol-5-yl)-3-cyclohexylquinolin-6-yl]-1H-indole-6-carboxylic acid]
inhibition at 1 µM: 98.8%

SMILES: COc1ccc(-c2ccc3cc(-c4c(C5CCCCC5)c5ccc(C(=O)O)cc5n4CC(=O)N4CCOCC4)ccc3n2)cc1F [Compound 273, 3-Cyclohexyl-2-[2-(3-fluoro-4-methoxy-phenyl)-quinolin-6-yl]-1-(2-morpholin-4-yl-2-oxo-ethyl)-1H-indole-6-carboxylic acid]
inhibition at 1 µM: 99.4%

The remaining lines, values ahead:

inhibition at 1 µM: 96%
SMILES: Cc1nc(C)c(-c2ccc3cc(-c4c(C5CCCCC5)c5ccc(C(=O)O)cc5n4CC(=O)N4CCOCC4)ccc3n2)o1 [Compound 260, 3-Cyclohexyl-2-[2-(2,4-dimethyl-oxazol-5-yl)-quinolin-6-yl]-1-(2-morpholin-4-yl-2-oxo-ethyl)-1H-indole-6-carboxylic acid]

inhibition at 1 µM: 92.5%
SMILES: Cc1nc(C)c(-c2ccc3cc(-c4c(C5CCCCC5)c5ccc(C(=O)O)cc5n4CC(=O)N4CCC(O)CC4)ccc3n2)s1 [Compound 236, 3-Cyclohexyl-2-[2-(2,4-dimethyl-thiazol-5-yl)-quinolin-6-yl]-1-[2-(4-hydroxy-piperidin-1-yl)-2-oxo-ethyl]-1H-indole-6-carboxylic acid]

inhibition at 1 µM: 63.6%
SMILES: Cc1nc(C)c(-c2ccc3cc(-c4c(C5CCCCC5)c5ccc(C(=O)NCCC#N)cc5n4CC(=O)N4CCOCC4)ccc3n2)s1 [Compound 242, 3-Cyclohexyl-2-[2-(2,4-dimethyl-thiazol-5-yl)-quinolin-6-yl]-1-(2-morpholin-4-yl-2-oxo-ethyl)-1H-indole-6-carboxylic acid (2-cyano-ethyl)-amide]

inhibition at 1 µM: 91.8%
SMILES: Cc1nc(C)c(-c2ccc3cc(-c4c(C5CCCCC5)c5ccc(C(=O)O)cc5n4CC(=O)N4CCC(N5CCOCC5)CC4)ccc3n2)s1 [Compound 278, 3-Cyclohexyl-2-[2-(2,4-dimethyl-thiazol-5-yl)-quinolin-6-yl]-1-[2-(4-morpholin-4-yl-piperidin-1-yl)-2-oxo-ethyl]-1H-indole-6-carboxylic acid]

inhibition at 1 µM: 95.2%
SMILES: Cc1nc(C(F)(F)F)sc1-c1ccc2cc(-c3c(C4CCCCC4)c4ccc(C(=O)O)cc4n3CC(=O)N3CCOCC3)ccc2n1 [Compound 248, 3-Cyclohexyl-2-[2-(4-methyl-2-trifluoromethyl-thiazol-5-yl)-quinolin-6-yl]-1-(2-morpholin-4-yl-2-oxo-ethyl)-1H-indole-6-carboxylic acid]

inhibition at 1 µM: 77.6%
SMILES: Cc1sc(-c2ccc3cc(-c4c(C5CCCCC5)c5ccc(C(=O)O)cc5n4CC(=O)N4CCOCC4)ccc3n2)c(C)[n+]1[O-] [Compound 281, 3-Cyclohexyl-2-[2-(2,4-dimethyl-3-oxy-thiazol-5-yl)-quinolin-6-yl]-1-(2-morpholin-4-yl-2-oxo-ethyl)-1H-indole-6-carboxylic acid]

inhibition at 1 µM: 74.3%
SMILES: Cc1nc(C)c(-c2ccc3cc(-c4c(C5CCCCC5)c5ccc(C(=O)O)cc5n4CC(=O)N4CCOCC4)cnc3n2)s1 [Compound 319, 3-Cyclohexyl-2-[7-(2,4-dimethyl-thiazol-5-yl)-[1,8]naphthyridin-3-yl]-1-(2-morpholin-4-yl-2-oxo-ethyl)-1H-indole-6-carboxylic acid]
